# From ChEMBL document CHEMBL1201862, “PubChem BioAssay data set” (2004)
# Activity calls are given as the source filed them.
# Tests used:
# [1] = test system: HEK293; assay: NOD1 signaling inhibitors, primary screen, cell-based, luminescence, uHTS (AID 1578); assay type: functional; conditions: Homo sapiens
# [2] = target: Nucleotide-binding oligomerization domain-containing protein 2 (Homo sapiens, UniProt Q9HC29); assay: NOD2 signaling inhibitors, cell-based, luminescence, uHTS, HEK293 (AID 1566); assay type: functional
# Chain of Nucleotide-binding oligomerization domain-containing protein 2 (Q9HC29 whole entry, the tested form may be a part): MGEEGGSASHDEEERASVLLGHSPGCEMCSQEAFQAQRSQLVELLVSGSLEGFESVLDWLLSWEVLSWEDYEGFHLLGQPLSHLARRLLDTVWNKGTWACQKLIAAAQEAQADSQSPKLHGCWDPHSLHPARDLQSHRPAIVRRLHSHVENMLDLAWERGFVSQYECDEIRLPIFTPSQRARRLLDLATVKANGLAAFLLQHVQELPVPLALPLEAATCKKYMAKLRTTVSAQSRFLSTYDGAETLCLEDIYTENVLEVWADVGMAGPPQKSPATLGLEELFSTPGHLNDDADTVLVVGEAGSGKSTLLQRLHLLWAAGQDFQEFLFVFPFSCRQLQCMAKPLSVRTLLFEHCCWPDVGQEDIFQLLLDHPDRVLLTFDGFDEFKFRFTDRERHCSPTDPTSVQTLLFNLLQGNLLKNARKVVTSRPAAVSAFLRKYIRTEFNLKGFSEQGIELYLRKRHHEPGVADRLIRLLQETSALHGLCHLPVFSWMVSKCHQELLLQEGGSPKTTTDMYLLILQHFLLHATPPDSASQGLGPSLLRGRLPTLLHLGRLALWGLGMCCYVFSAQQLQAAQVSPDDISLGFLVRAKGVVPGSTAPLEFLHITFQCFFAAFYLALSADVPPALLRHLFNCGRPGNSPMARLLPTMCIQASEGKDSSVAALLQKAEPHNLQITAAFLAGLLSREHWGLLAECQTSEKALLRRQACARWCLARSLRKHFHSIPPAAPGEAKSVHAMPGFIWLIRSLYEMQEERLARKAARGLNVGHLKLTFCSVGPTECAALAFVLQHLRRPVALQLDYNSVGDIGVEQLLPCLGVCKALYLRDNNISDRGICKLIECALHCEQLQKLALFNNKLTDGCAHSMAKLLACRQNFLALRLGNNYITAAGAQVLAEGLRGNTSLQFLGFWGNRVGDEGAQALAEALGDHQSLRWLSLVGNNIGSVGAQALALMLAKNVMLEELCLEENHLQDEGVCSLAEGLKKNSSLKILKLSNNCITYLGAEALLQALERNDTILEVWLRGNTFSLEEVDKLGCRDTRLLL
# [3] = test system: HEK293; assay: NOD2 signaling inhibitors in MDP-stimulated cells, cell-based, uHTS, luminescence (AID 2001); assay type: functional; conditions: Homo sapiens
# [4] = test system: HEK293; assay: cells; assay type: functional, cell-based; conditions: Homo sapiens
# [5] = test system: HEK293; assay: cells; assay type: functional, cell-based; conditions: Homo sapiens; remark: listed apart in the source
# [6] = test system: HEK293; assay: cells; assay type: functional, cell-based; conditions: Homo sapiens; remark: listed apart in the source
# [7] = target: Cytochrome P450 3A4 (Homo sapiens, UniProt P08684); conditions: Potency;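 note: confirmatory qHTS run detecting inhibitors and substrates of CYP3A4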
# Chain of Cytochrome P450 3A4 (P08684 whole entry): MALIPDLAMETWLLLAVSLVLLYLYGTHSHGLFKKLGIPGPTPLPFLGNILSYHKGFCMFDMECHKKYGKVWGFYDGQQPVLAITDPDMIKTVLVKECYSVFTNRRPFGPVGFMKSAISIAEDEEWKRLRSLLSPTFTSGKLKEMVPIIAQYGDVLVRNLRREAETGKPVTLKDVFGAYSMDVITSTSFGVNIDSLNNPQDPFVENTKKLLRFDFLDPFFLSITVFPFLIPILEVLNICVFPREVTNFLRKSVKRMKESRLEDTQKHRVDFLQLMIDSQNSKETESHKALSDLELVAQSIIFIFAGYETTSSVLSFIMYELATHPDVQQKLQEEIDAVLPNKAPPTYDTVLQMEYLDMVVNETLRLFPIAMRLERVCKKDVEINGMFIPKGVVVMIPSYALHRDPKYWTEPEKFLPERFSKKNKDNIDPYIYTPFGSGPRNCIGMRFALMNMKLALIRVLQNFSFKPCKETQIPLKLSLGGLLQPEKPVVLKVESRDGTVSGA
# [8] = target: G-protein coupled receptor 55 (Homo sapiens, UniProt Q9Y2T6); assay: GPR55 antagonists blocking LPI-driven arrestin recruitment, primary screen, imaging, U2OS, beta-arrestin-GFP, LPI agonist (AID 2013); assay type: functional;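 note: antagonist potency measured as reduced agonist-driven arrestin aggregation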
# Chain of G-protein coupled receptor 55 (Q9Y2T6 whole entry): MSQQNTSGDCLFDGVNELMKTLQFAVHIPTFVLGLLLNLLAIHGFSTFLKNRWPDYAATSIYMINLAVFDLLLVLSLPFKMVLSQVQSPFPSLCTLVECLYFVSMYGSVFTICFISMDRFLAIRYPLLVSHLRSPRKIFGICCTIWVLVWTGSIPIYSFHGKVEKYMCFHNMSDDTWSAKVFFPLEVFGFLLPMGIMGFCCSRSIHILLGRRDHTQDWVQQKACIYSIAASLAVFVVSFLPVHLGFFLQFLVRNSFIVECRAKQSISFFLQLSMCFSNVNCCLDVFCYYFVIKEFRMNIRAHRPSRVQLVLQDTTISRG
# [9] = THP-1 cell cytotoxicity, dose response, cytotoxicity control for non-replicating M. tuberculosis project (AID 489025); assay type: functional
# [10] = target: T1, Replicative DNA helicase DnaB (Mycobacterium tuberculosis, UniProt P9WMR3); assay: DnaB intein splicing inhibitors, dose response, biochemical, cell-free fluorescence (AID 449749); assay type: functional
# T1 sequence (P9WMR3 whole entry): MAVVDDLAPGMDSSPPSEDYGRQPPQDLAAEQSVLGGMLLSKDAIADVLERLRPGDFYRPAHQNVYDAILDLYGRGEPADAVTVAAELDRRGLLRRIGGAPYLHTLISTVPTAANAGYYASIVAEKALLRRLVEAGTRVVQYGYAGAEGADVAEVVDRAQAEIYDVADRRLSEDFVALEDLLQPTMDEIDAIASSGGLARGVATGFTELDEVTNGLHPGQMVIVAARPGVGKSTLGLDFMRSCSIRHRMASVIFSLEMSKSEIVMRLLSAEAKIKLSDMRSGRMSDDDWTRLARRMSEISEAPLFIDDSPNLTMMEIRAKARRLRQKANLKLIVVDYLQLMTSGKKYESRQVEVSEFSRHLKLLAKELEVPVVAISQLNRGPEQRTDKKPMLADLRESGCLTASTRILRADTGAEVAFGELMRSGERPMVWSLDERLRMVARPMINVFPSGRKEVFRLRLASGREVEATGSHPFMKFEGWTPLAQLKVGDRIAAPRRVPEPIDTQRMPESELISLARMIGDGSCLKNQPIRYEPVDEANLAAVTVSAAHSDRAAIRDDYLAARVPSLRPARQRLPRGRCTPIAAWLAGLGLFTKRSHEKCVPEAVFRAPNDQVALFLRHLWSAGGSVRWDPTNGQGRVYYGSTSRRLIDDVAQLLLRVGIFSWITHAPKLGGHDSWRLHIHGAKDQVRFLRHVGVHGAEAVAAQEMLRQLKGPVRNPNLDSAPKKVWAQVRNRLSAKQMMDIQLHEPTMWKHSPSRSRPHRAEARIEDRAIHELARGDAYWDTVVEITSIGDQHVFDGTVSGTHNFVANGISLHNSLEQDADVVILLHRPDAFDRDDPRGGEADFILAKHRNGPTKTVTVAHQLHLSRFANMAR
# [11] = target: T2, Protein RecA (Mycobacterium tuberculosis, UniProt P9WHJ3); assay: Fluorescence Cell-Free Homogeneous Dose Retest to Identify Inhibitors of RecA-Intein Splicing Activity. [Related pubchem assays (depositor defined):AID2097, AID2223, AID489010, AID492950]; assay type: functional
# T2 sequence (P9WHJ3 whole entry): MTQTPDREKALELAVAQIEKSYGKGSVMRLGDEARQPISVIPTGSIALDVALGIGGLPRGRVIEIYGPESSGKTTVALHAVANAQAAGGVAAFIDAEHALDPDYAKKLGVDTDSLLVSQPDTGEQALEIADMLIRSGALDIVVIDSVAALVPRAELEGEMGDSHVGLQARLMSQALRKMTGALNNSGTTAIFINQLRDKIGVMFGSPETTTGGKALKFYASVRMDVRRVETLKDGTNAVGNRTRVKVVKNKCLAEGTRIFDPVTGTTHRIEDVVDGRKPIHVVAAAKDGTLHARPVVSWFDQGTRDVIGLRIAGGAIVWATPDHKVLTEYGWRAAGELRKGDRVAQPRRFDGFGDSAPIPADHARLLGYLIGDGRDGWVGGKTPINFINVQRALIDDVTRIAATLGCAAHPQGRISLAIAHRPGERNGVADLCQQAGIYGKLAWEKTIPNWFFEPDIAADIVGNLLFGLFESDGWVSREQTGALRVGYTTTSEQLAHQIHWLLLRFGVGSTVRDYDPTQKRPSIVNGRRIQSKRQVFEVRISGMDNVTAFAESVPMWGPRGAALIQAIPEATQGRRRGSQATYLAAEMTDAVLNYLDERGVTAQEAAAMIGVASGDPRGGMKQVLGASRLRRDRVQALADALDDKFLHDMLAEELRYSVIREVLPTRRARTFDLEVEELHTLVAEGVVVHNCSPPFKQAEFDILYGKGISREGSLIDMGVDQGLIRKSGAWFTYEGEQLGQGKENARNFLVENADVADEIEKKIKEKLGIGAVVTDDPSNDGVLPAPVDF
# [12] = target: T3, Streptokinase A (Streptococcus pyogenes serotype M1, UniProt P10520); assay: S. pyogenes streptokinase expression inhibitors, potency, dose response, plasminogen activation absorbance, OD405 (AID 1914); assay type: functional, Streptococcus pyogenes M1 GAS;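 note: secreted streptokinase activity via plasminogen activation per viability signal from cell pellet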
# T3 sequence (P10520 whole entry): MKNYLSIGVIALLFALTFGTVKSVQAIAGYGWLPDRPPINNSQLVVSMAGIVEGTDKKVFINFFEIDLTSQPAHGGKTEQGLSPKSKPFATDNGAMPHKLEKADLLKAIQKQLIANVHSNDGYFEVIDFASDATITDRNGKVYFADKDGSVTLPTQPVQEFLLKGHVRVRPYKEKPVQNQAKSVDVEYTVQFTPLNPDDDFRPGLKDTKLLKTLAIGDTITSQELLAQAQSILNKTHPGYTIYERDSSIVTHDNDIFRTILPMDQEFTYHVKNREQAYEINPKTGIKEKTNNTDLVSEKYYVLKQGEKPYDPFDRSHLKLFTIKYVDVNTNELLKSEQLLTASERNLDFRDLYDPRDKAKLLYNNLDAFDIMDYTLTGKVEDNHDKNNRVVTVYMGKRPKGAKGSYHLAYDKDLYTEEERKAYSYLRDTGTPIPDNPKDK
# [13] = test system: Streptococcus; assay: Group A Streptococcus viability loss, dose response, counter-screen for streptokinase expression inhibitor project, luminescence, BacTiterGlo (AID 1915); assay type: functional, organism-based;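 note: potency for reduction of bacterial viability or growth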
# [14] = target: T4, Protein skinhead-1 (Caenorhabditis elegans, UniProt P34707); assay type: functional
# T4 sequence (P34707 whole entry): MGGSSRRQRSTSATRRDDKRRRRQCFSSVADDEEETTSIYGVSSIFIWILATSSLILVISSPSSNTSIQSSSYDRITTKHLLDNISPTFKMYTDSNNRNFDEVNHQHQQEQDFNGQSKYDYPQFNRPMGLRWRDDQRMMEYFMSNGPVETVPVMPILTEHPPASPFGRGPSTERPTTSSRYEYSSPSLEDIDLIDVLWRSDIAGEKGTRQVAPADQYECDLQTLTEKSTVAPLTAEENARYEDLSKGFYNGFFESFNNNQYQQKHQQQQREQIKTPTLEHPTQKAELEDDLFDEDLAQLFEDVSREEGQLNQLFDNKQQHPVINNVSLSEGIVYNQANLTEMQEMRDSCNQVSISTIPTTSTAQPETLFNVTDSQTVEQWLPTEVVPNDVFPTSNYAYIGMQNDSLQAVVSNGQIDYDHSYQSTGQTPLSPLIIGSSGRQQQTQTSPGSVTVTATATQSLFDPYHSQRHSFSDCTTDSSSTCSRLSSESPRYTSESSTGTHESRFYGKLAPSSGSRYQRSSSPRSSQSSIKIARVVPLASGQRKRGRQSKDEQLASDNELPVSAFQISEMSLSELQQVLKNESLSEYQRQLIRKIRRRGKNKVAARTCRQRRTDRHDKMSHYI
# [15] = target: T5, Corticotropin-releasing factor receptor 2/Corticotropin-releasing factor-binding protein (Homo sapiens, UniProt P24387+Q13324); assay: Dose Response confirmation of uHTS hits for small molecule antagonists of the CRF-binding protein and CRF-R2 receptor complex.; assay type: functional; conditions: read-out: IC50_Mean
# T5 sequence (Q13324 whole entry): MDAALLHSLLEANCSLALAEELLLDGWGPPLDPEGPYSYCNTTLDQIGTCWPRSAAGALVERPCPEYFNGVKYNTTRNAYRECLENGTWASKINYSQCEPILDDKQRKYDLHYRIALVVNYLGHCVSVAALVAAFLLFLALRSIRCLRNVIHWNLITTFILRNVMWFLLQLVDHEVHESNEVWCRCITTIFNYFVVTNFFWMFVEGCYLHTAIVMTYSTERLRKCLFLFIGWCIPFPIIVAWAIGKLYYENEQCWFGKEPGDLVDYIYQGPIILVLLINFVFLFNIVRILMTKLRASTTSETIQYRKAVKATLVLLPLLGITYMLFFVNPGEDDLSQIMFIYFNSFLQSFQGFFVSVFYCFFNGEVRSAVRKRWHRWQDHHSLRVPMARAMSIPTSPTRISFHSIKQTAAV
# T5 sequence (P24387 whole entry): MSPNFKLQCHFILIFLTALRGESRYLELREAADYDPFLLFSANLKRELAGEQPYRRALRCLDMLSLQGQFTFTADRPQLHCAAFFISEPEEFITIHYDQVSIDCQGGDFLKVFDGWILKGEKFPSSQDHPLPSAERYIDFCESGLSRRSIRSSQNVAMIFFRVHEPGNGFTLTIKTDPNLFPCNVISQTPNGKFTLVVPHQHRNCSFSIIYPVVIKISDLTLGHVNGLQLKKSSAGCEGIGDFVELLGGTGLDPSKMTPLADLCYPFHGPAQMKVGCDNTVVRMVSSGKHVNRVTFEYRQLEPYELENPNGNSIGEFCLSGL
# [16] = growth suppression of beta-catenin-knockout colon cells, dose response, cell-based, HCT116, human colon tumor (AID 1045); assay type: functional;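 note: HCT116 colon tumor cells with beta catenin knocked out; cells exposed to compound for 60 hours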
# [17] = target: T6, Heat shock factor protein 1 (Mus musculus, UniProt P38532); assay: HSF1 potentiators in luciferase reporter cells, confirmation, cell-based, NIH3T3, luminescence, dose retest (AID 435004); assay type: functional;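 note: stress induced by proteasome inhibitor MG132 added 30 min after compound; luciferase reporter driven by HSF1 response element in NIH3T3 cells; actives raise luminescence as potentiators of the MG132 stress response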
# T6 sequence (P38532 whole entry): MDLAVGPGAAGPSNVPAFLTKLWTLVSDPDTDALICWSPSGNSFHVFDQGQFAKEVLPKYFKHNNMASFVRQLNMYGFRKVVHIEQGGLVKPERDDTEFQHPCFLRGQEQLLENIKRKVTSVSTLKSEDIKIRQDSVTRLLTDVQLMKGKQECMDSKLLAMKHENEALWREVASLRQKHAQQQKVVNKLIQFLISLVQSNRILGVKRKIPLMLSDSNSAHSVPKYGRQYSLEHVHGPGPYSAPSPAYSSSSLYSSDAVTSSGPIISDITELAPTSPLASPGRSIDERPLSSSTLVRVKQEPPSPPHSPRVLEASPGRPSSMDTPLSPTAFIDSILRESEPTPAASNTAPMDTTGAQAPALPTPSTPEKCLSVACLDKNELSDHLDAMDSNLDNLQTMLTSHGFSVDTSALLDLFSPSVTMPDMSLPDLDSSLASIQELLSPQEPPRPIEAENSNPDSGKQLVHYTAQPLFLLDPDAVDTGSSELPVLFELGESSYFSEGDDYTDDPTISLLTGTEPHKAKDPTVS
# [18] = target: T5, Corticotropin-releasing factor receptor 2/Corticotropin-releasing factor-binding protein; assay: activators of CRF receptor 2 with binding protein – uHTS hits, confirmation (AID 602473); assay type: functional; conditions: read-out: EC50_Mean
# [19] = growth suppression of PTEN-null colon cells, dose response, cell-based, HCT116 PTEN knockout (AID 1047); assay type: functional;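 note: HCT116 colon tumor cells with PTEN knocked out; cells exposed to compound for 60 hours before readout; potency for loss of cell viability measured by luminescence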
smiles,measurement,setting,value
Cc1ccc(NC(=O)CSc2ncnc3ccccc23)cc1S(=O)(=O)N1CCCCC1,EC50,[1],4.43 µM (active)
same,EC50,[2],4.73 µM (active)
same,IC50,[3],1.73 µM (active)
same,IC50,[4],6.83 µM (active)
same,IC50,[5],> 20 µM (inactive)
same,IC50,[6],1.81 µM (active)
CC1(C)C2(Cl)C(Cl)C(Cl)C(Cl)(C(Cl)Cl)C1(Cl)C2Cl (stereo unspecified) [STROBANE],AC50,[7],15.8 µM (inconclusive)
COc1ccc(CNCc2cc3c(C(C)(C)C)nn(-c4ccccc4)c3[nH]c2=O)cc1,IC50,[8],2.18 µM (active)
COC(=O)[C@@]1(C)C[C@@H]1[C@@H](NC(=O)[C@@]1(C)C[C@@H]1[C@@H](NC(=O)[C@@]1(C)C[C@@H]1[C@@H](NC(=O)[C@@]1(C)C[C@@H]1[C@@H](NC(=O)OCc1ccccc1)c1ccccc1)c1ccccc1)c1ccccc1)c1ccccc1,AC50,[7],0.2 µM (inconclusive)
O=S(=O)(Nc1ccc(O)c2ccccc12)c1ccc(F)cc1,CC50,[9],> 40 µM (active)
same,AC50,[10],0.214 µM (active)
same,EC50,[11],0.0466 µM (active)
COC(=O)c1c(NC(NC(=O)C(C)(C)C)C(Cl)(Cl)Cl)sc2c1CCC2 (stereo unspecified),IC50,[8],2.01 µM (active)
same,EC50,[12],2.8 µM (active)
same,EC50,[13],20.3 µM (active)
CCCn1c(-c2ccc(F)cc2)nc2c(N(C)CCN(C)C)nc(C)nc21,AC50,[7],25.1 µM (inconclusive)
COC(=O)c1ccc(CN2[C@H](C(=O)OC)C[C@@]3(O)[C@H](O)[C@H](O)[C@H](O)C[C@@H]23)cc1,AC50,[7],12.6 µM (inconclusive)
CN1/C(=C/C(=O)CSc2ccccc2C(=O)O)C(C)(C)c2ccccc21,IC50,[14],> 100 µM (inactive)
same,IC50,[8],3.44 µM (active)
COc1c(O)cc2c(-c3ccccc3)cc(=O)oc2c1OC [KUHLMANNIN],AC50,[7],31.6 µM (inconclusive)
CCOC(=O)C(C)(C)N(Cc1ccc(C)cc1)S(=O)(=O)c1ccc(Cl)c([N+](=O)[O-])c1,IC50,[15],> 47.1 µM (inactive)
same,IC50,[8],3.61 µM (active)
same,EC50,[16],15.3 µM (active)
same,EC50,[17],20.1 µM (active)
same,EC50,[18],> 53 µM (inactive)
same,EC50,[19],17.7 µM (active)
